Our source for the Kd values is publication PMC4785361, “Insight into determinants of substrate binding and transport in a multidrug efflux protein” (Scientific Reports, 2016).

Each structure is given as a SMILES string.

For the test, the target named is T1, MdtM (Escherichia coli, UniProt P39386).
T1 construct: full-length 410 residues, pBAD/Myc-His A vector (C-terminal Myc-His tag), overproduced in E. coli LMG194, purified in DDM detergent
Description: biochemical. The format is binding. From the text: intrinsic tryptophan fluorescence quenching on MdtM

T1 sequence (P39386 whole entry): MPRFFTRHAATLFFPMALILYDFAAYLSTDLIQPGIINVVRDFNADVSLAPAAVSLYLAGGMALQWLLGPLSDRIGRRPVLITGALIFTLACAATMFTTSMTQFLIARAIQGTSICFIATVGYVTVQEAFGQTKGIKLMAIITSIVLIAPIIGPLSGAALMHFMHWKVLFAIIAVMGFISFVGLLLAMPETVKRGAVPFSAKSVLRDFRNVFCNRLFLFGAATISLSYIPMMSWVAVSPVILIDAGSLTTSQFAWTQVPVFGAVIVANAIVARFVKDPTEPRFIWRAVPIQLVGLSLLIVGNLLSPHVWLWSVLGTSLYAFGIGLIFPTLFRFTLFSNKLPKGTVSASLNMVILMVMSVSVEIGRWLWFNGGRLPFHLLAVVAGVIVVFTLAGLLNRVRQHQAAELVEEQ

As a reminder, the Kd is the equilibrium constant for the complex coming apart. Read a low Kd as tighter binding. In turn, `c1ccc([P+](c2ccccc2)(c2ccccc2)c2ccccc2)cc1` [TPP+] had a Kd of 400 ± 145 nM.

Turning to `O=C(N[C@H](CO)[C@H](O)c1ccc([N+](=O)[O-])cc1)C(Cl)Cl` [chloramphenicol, 2,2-dichloro-N-[2-hydroxy-1-hydroxymethyl-2-(4-nitro-phenyl)-ethyl]-acetamide], the Kd was found to be 22 ± 4 nM.
